Laboratory results reported in ChEMBL document CHEMBL3046329, “Sensitivity to silthiofam, tebuconazole and difenoconazole of Gaeumannomyces graminis var. tritici isolates from China” (Pest Manag Sci, 2012).
Converted amounts (≈) assume the structure as drawn.

Tests used:
Format in all cases: functional, organism-based
Gaeumannomyces tritici [1] = test: Antifungal activity against sithiofam-resistant Gaeumannomyces graminis var. tritici isolate HN10 expressing C1 genetic cluster assessed as reduction in fungal colony diameter after 4 days; details: isolate HN10, 96 h
Gaeumannomyces tritici [2] = test: Antifungal activity against sithiofam-sensitive Gaeumannomyces graminis var. tritici isolate AH07 expressing C2 genetic cluster assessed as reduction in fungal colony diameter after 4 days; details: isolate AH07, 96 h
Gaeumannomyces tritici [3] = test: Antifungal activity against sithiofam-sensitive Gaeumannomyces graminis var. tritici isolate HN32 expressing C2 genetic cluster assessed as reduction in fungal colony diameter after 4 days; details: isolate HN32, 96 h
Gaeumannomyces tritici [4] = test: Antifungal activity against sithiofam-resistant Gaeumannomyces graminis var. tritici isolate HN04 expressing C1 genetic cluster assessed as reduction in fungal colony diameter after 4 days; details: isolate HN04, 96 h
Gaeumannomyces tritici [5] = test: Antifungal activity against sithiofam-sensitive Gaeumannomyces graminis var. tritici isolate HN30 expressing C2 genetic cluster assessed as reduction in fungal colony diameter after 4 days; details: isolate HN30, 96 h
Gaeumannomyces tritici [6] = test: Antifungal activity against sithiofam-sensitive Gaeumannomyces graminis var. tritici isolate AH11 expressing C2 genetic cluster assessed as reduction in fungal colony diameter after 4 days; details: isolate AH11, 96 h
Gaeumannomyces tritici [7] = test: Antifungal activity against sithiofam-resistant Gaeumannomyces graminis var. tritici isolate HN07 expressing C1 genetic cluster assessed as reduction in fungal colony diameter after 4 days; details: isolate HN07, 96 h
Gaeumannomyces tritici [8] = test: Antifungal activity against sithiofam-resistant Gaeumannomyces graminis var. tritici isolate HN01 expressing C1 genetic cluster assessed as reduction in fungal colony diameter after 4 days; details: isolate HN01, 96 h
Gaeumannomyces tritici [9] = test: Antifungal activity against sithiofam-sensitive Gaeumannomyces graminis var. tritici isolate AH03 expressing C2 genetic cluster assessed as reduction in fungal colony diameter after 4 days; details: isolate AH03, 96 h
Gaeumannomyces tritici [10] = test: Antifungal activity against sithiofam-resistant Gaeumannomyces graminis var. tritici isolate HN13 expressing C1 genetic cluster assessed as reduction in fungal colony diameter after 4 days; details: isolate HN13, 96 h
Gaeumannomyces tritici [11] = test: Antifungal activity against sithiofam-resistant Gaeumannomyces graminis var. tritici isolate HN08 expressing C1 genetic cluster assessed as reduction in fungal colony diameter after 4 days; details: isolate HN08, 96 h
Gaeumannomyces tritici [12] = test: Antifungal activity against sithiofam-sensitive Gaeumannomyces graminis var. tritici isolate HN22 expressing C2 genetic cluster assessed as reduction in fungal colony diameter after 4 days; details: isolate HN22, 96 h
Gaeumannomyces tritici [13] = test: Antifungal activity against sithiofam-resistant Gaeumannomyces graminis var. tritici isolate AH14 expressing C1 genetic cluster assessed as reduction in fungal colony diameter after 4 days; details: isolate AH14, 96 h
Gaeumannomyces tritici [14] = test: Antifungal activity against sithiofam-sensitive Gaeumannomyces graminis var. tritici isolate AH16 expressing C2 genetic cluster assessed as reduction in fungal colony diameter after 4 days; details: isolate AH16, 96 h
Gaeumannomyces tritici [15] = test: Antifungal activity against sithiofam-sensitive Gaeumannomyces graminis var. tritici isolate HN31 expressing C3 genetic cluster assessed as reduction in fungal colony diameter after 4 days; details: isolate HN31, 96 h
Gaeumannomyces tritici [16] = test: Antifungal activity against sithiofam-sensitive Gaeumannomyces graminis var. tritici isolate SD03 expressing C2 genetic cluster assessed as reduction in fungal colony diameter after 4 days; details: isolate SD03, 96 h
Gaeumannomyces tritici [17] = test: Antifungal activity against sithiofam-sensitive Gaeumannomyces graminis var. tritici isolate HN29 expressing C2 genetic cluster assessed as reduction in fungal colony diameter after 4 days; details: isolate HN29, 96 h
Gaeumannomyces tritici [18] = test: Antifungal activity against sithiofam-sensitive Gaeumannomyces graminis var. tritici isolate SD01 expressing C2 genetic cluster assessed as reduction in fungal colony diameter after 4 days; details: isolate SD01, 96 h
Gaeumannomyces tritici [19] = test: Antifungal activity against sithiofam-resistant Gaeumannomyces graminis var. tritici isolate AH13 expressing C1 genetic cluster assessed as reduction in fungal colony diameter after 4 days; details: isolate AH13, 96 h
Gaeumannomyces tritici [20] = test: Antifungal activity against sithiofam-sensitive Gaeumannomyces graminis var. tritici isolate HN14 expressing C2 genetic cluster assessed as reduction in fungal colony diameter after 4 days; details: isolate HN14, 96 h
Gaeumannomyces tritici [21] = test: Antifungal activity against sithiofam-resistant Gaeumannomyces graminis var. tritici isolate HN12 expressing C1 genetic cluster assessed as reduction in fungal colony diameter after 4 days; details: isolate HN12, HN12, 96 h
Gaeumannomyces tritici [22] = test: Antifungal activity against sithiofam-sensitive Gaeumannomyces graminis var. tritici isolate HN24 expressing C2 genetic cluster assessed as reduction in fungal colony diameter after 4 days; details: isolate HN24, 96 h
Gaeumannomyces tritici [23] = test: Antifungal activity against sithiofam-sensitive Gaeumannomyces graminis var. tritici isolate SD05 expressing C2 genetic cluster assessed as reduction in fungal colony diameter after 4 days; details: isolate SD05, 96 h
Gaeumannomyces tritici [24] = test: Antifungal activity against sithiofam-sensitive Gaeumannomyces graminis var. tritici isolate JS10 expressing C2 genetic cluster assessed as reduction in fungal colony diameter after 4 days; details: isolate JS10, 96 h
Gaeumannomyces tritici [25] = test: Antifungal activity against sithiofam-resistant Gaeumannomyces graminis var. tritici isolate JS05 expressing C1 genetic cluster assessed as reduction in fungal colony diameter after 4 days; details: isolate JS05, 96 h
Gaeumannomyces tritici [26] = test: Antifungal activity against sithiofam-sensitive Gaeumannomyces graminis var. tritici isolate SD02 expressing C2 genetic cluster assessed as reduction in fungal colony diameter after 4 days; details: isolate SD02, 96 h
Gaeumannomyces tritici [27] = test: Antifungal activity against sithiofam-resistant Gaeumannomyces graminis var. tritici isolate HN16 expressing C1 genetic cluster assessed as reduction in fungal colony diameter after 4 days; details: isolate HN16, 96 h
Gaeumannomyces tritici [28] = test: Antifungal activity against sithiofam-sensitive Gaeumannomyces graminis var. tritici isolate AH09 expressing C2 genetic cluster assessed as reduction in fungal colony diameter after 4 days; details: isolate AH09, 96 h
Gaeumannomyces tritici [29] = test: Antifungal activity against sithiofam-resistant Gaeumannomyces graminis var. tritici isolate JS09 expressing C1 genetic cluster assessed as reduction in fungal colony diameter after 4 days; details: isolate JS09, 96 h
Gaeumannomyces tritici [30] = test: Antifungal activity against sithiofam-resistant Gaeumannomyces graminis var. tritici isolate JS11 expressing C1 genetic cluster assessed as reduction in fungal colony diameter after 4 days; details: isolate JS11, 96 h
Gaeumannomyces tritici [31] = test: Antifungal activity against sithiofam-sensitive Gaeumannomyces graminis var. tritici isolate HN21 expressing C2 genetic cluster assessed as reduction in fungal colony diameter after 4 days; details: isolate HN21, 96 h
Gaeumannomyces tritici [32] = test: Antifungal activity against sithiofam-sensitive Gaeumannomyces graminis var. tritici isolate HN23 expressing C2 genetic cluster assessed as reduction in fungal colony diameter after 4 days; details: isolate HN23, 96 h
Gaeumannomyces tritici [33] = test: Antifungal activity against sithiofam-sensitive Gaeumannomyces graminis var. tritici isolate HN26 expressing C2 genetic cluster assessed as reduction in fungal colony diameter after 4 days; details: isolate HN26, 96 h
Gaeumannomyces tritici [34] = test: Antifungal activity against sithiofam-resistant Gaeumannomyces graminis var. tritici isolate JS06 expressing C1 genetic cluster assessed as reduction in fungal colony diameter after 4 days; details: isolate JS06, 96 h
Gaeumannomyces tritici [35] = test: Antifungal activity against sithiofam-resistant Gaeumannomyces graminis var. tritici isolate JS07 expressing C1 genetic cluster assessed as reduction in fungal colony diameter after 4 days; details: isolate JS07, 96 h
Gaeumannomyces tritici [36] = test: Antifungal activity against sithiofam-sensitive Gaeumannomyces graminis var. tritici isolate JS01 expressing C1 genetic cluster assessed as reduction in fungal colony diameter after 4 days; details: isolate JS01, 96 h
Gaeumannomyces tritici [37] = test: Antifungal activity against sithiofam-resistant Gaeumannomyces graminis var. tritici isolate HN27 expressing […] genetic cluster assessed as reduction in fungal colony diameter after 4 days; details: isolate HN27, 96 h

`CC(C)(C)C(O)(CCc1ccc(Cl)cc1)Cn1cncn1` (configuration not stated) [TEBUCONAZOLE] was tested, and the EC50 (Gaeumannomyces tritici [1]) was 0.0691 µg/mL (≈ 0.224 µM), the EC50 (Gaeumannomyces tritici [2]) was 0.0647 µg/mL (≈ 0.21 µM) and the EC50 (Gaeumannomyces tritici [3]) was 0.238 µg/mL (≈ 0.772 µM). For the same compound, the EC50 (Gaeumannomyces tritici [4]) was 0.056 µg/mL (≈ 0.182 µM), the EC50 (Gaeumannomyces tritici [5]) was 0.123 µg/mL (≈ 0.401 µM) and the EC50 (Gaeumannomyces tritici [6]) was 0.0395 µg/mL (≈ 0.128 µM). The EC50 (Gaeumannomyces tritici [7]) was 0.0513 µg/mL (≈ 0.167 µM), the EC50 (Gaeumannomyces tritici [8]) was 0.0198 µg/mL (≈ 0.0643 µM) and the EC50 (Gaeumannomyces tritici [9]) was 0.0622 µg/mL (≈ 0.202 µM). For the same compound, the EC50 (Gaeumannomyces tritici [10]) was 0.0689 µg/mL (≈ 0.224 µM), the EC50 (Gaeumannomyces tritici [11]) was 0.057 µg/mL (≈ 0.185 µM) and the EC50 (Gaeumannomyces tritici [12]) was 0.039 µg/mL (≈ 0.127 µM). For the same compound, the EC50 (Gaeumannomyces tritici [13]) was 0.0265 µg/mL (≈ 0.0861 µM), the EC50 (Gaeumannomyces tritici [14]) was 0.0965 µg/mL (≈ 0.313 µM) and the EC50 (Gaeumannomyces tritici [15]) was 0.111 µg/mL (≈ 0.362 µM). The EC50 (Gaeumannomyces tritici [16]) was 0.0983 µg/mL (≈ 0.319 µM), the EC50 (Gaeumannomyces tritici [17]) was 0.076 µg/mL (≈ 0.247 µM) and the EC50 (Gaeumannomyces tritici [18]) was 0.176 µg/mL (≈ 0.573 µM). For the same compound, the EC50 (Gaeumannomyces tritici [19]) was 0.302 µg/mL (≈ 0.981 µM), the EC50 (Gaeumannomyces tritici [20]) was 0.0479 µg/mL (≈ 0.156 µM) and the EC50 (Gaeumannomyces tritici [21]) was 0.076 µg/mL (≈ 0.247 µM). The EC50 (Gaeumannomyces tritici [22]) was 0.0472 µg/mL (≈ 0.153 µM), the EC50 (Gaeumannomyces tritici [23]) was 0.0688 µg/mL (≈ 0.224 µM) and the EC50 (Gaeumannomyces tritici [24]) was 0.103 µg/mL (≈ 0.334 µM). It also gave an EC50 (Gaeumannomyces tritici [25]) of 0.0575 µg/mL (≈ 0.187 µM), an EC50 (Gaeumannomyces tritici [26]) of 0.0575 µg/mL (≈ 0.187 µM) and an EC50 (Gaeumannomyces tritici [27]) of 0.0599 µg/mL (≈ 0.195 µM). It also gave an EC50 (Gaeumannomyces tritici [28]) of 0.0952 µg/mL (≈ 0.309 µM), an EC50 (Gaeumannomyces tritici [29]) of 0.0298 µg/mL (≈ 0.0968 µM) and an EC50 (Gaeumannomyces tritici [30]) of 0.0437 µg/mL (≈ 0.142 µM). For the same compound, the EC50 (Gaeumannomyces tritici [31]) was 0.0609 µg/mL (≈ 0.198 µM), the EC50 (Gaeumannomyces tritici [32]) was 0.078 µg/mL (≈ 0.253 µM) and the EC50 (Gaeumannomyces tritici [33]) was 0.0722 µg/mL (≈ 0.235 µM). The EC50 (Gaeumannomyces tritici [34]) was 0.085 µg/mL (≈ 0.276 µM), the EC50 (Gaeumannomyces tritici [35]) was 0.0584 µg/mL (≈ 0.19 µM) and the EC50 (Gaeumannomyces tritici [36]) was 0.0325 µg/mL (≈ 0.106 µM). It also gave an EC50 (Gaeumannomyces tritici [37]) of 0.0536 µg/mL (≈ 0.174 µM).
